Tests used:
[1] = Illumination stability experiment (HPLC content); type: physicochemical; conditions: visible light 5000 ± 500 lx, ultraviolet light 250 μW/cm^2
Procedure: Test Example 2. Illumination Stability Experiment
• Stability chamber, model: ICH-110L, Memmert, USA; • High performance liquid chromatograph (HPLC), model: 1260, Agilent.
• Detection wavelength: 220 nM, 254 nM • Chromatographic column: Agilent ZORBAX SB-C8 4.6×250 mm, 5 μm • Mobile phase A: water • Mobile phase B: acetonitrile • Flow rate: 1.0 mL/min • Column temperature: 35° C. • Injection volume: 10 μL
• 1. A test compound was weighed out and placed into the stability chamber; • 2. a light source was turned on, with visible light of 5000±500 lx and ultraviolet light of 250 μW/cm^2; • 3. sampling was performed at 0 h, 8 h, 24 h, and 72 h, and the sample was dissolved in an aqueous acetonitrile solution with a volume fraction of 50%; • 4. HPLC was used for detection, and the content was determined by using the area normalization method.

AHR protein = biological target: T1, AHR protein (Homo sapiens, UniProt P35869); assay: Luciferase reporter gene assay (AHR agonistic activity); type: cell-based; conditions: HepG2-Lucia AHR cells, 24 h incubation; read-out: Luciferase-labeled human hepatoma cells (HepG2-Lucia) AHR agonist EC50
T1 construct: Human hepatoma cells HepG2-Lucia expressing AHR and luciferase; host or cells: HepG2-Lucia AHR (human hepatoma)
T1 sequence (P35869 11-848): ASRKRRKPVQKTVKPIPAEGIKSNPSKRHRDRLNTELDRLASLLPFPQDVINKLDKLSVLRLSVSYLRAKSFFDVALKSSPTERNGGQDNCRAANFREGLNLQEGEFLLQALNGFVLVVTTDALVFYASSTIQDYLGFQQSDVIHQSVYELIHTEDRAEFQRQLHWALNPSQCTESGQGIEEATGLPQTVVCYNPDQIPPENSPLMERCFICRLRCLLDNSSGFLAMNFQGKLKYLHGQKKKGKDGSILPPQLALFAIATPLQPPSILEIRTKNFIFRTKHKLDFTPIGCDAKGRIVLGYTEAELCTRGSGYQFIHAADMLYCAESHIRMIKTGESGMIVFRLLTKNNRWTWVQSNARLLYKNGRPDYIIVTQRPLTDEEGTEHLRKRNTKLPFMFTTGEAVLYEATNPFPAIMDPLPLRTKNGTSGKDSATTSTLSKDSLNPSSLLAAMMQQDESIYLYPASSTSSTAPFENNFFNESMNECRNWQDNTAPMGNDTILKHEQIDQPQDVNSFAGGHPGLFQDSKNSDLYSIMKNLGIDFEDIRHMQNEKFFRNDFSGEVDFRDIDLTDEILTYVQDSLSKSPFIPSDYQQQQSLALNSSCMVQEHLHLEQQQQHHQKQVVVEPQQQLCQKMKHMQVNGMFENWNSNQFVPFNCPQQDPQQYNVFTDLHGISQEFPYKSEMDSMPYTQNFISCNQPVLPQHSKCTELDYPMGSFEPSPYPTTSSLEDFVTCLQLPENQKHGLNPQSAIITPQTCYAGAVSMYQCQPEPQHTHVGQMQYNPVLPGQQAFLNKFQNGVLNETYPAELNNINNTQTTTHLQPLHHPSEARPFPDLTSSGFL
Procedure: Luciferase Reporter Gene Assay
In this test example, a luciferase reporter gene assay was performed to assay the agonistic activity effect of the compounds of the present disclosure on AHR protein.
• Human hepatoma cells HepG2-Lucia expressing AHR and luciferase were purchased from InvivoGen with the catalog number of hpgl-ahr;
• 1. HepG2-Lucia AHR cells were cultured in an EMEM medium containing 10% inactivated fetal bovine serum, 1×NEAA, penicillin-streptomycin, and 100 μg/mL Zeocin (bleomycin). The culture temperature was 37° C. and the concentration of carbon dioxide was 5%. • 2. After the cells were grown to about 80% confluency, the cells were digested, centrifuged, resuspended, and counted. The cells were seeded into a 384-well plate at 40 μL/well. • 3. Different concentrations of the test compounds were added by using ECHO at 40 nL/well. • 4. The 384-well plate to which the compounds were added was incubated in the incubator for 24 h. • 5. The supernatant was collected, a QUANTI-Luc Gold detection reagent was added, and the luminescence signal values were read by using the multifunctional microplate reader.

Compound | Liquid chromatography content (220 nM, %) ([1]; batch 2, 0 h) [%] | Liquid chromatography content (220 nM, %) ([1]; batch 2, 8 h) [%] | Liquid chromatography content (220 nM, %) ([1]; batch 2, 24 h) [%] | Liquid chromatography content (220 nM, %) ([1]; batch 2, 72 h) [%] | EC50 (AHR protein) [nM] | Liquid chromatography content (220 nM, %) ([1]; batch 1, 0 h) [%] | Liquid chromatography content (220 nM, %) ([1]; batch 1, 8 h) [%] | Liquid chromatography content (220 nM, %) ([1]; batch 1, 24 h) [%] | Liquid chromatography content (220 nM, %) ([1]; batch 1, 72 h) [%]
(E)-4-Fluoro-2-isopropyl-5-[2-(pyridin-2-yl)vinyl]benzene-1,3-diol [Compound 16] | 97.58 | 97.52 | 96.88 | 96.81 |  |  |  |  | 
CC(C)c1c(O)cc(/C=C/c2ccccc2)c(Br)c1O [Compound 4, (E)-4-Bromo-2-isopropyl-5-styrylbenzene-1,3-diol] |  |  |  |  | 219 |  |  |  | 
CC(C)c1c(O)cc(/C=C/c2cccc(F)n2)cc1O [Comparative Example 1, reference compound] | 96.99 | 85.98 | 82.13 | 72.30 |  |  |  |  | 
CC(C)c1c(O)cc(/C=C/c2ccc(F)cc2)c(F)c1O [Compound 5, (E)-4-Fluoro-5-(4-fluorostyryl)-2-isopropylbenzene-1,3-diol] | 99.30 | 98.80 | 99.22 | 99.06 | 6 |  |  |  | 
CC(C)c1c(O)cc(/C=C/c2ccccc2)c(Cl)c1O [Compound 1, (E)-4-Chloro-2-isopropyl-5-styrylbenzene-1,3-diol] |  |  |  |  | 238 |  |  |  | 
CC(C)c1c(O)cc(/C=C/c2ccncc2)c(F)c1O [Compound 18, (E)-4-Fluoro-2-isopropyl-5-[2-(pyridin-4-yl)vinyl]benzene-1,3-diol] |  |  |  |  | 66 |  |  |  | 
CC(C)c1c(O)cc(/C=C/c2cccc(F)n2)c(F)c1O [Compound 14, (E)-4-Fluoro-5-[2-(6-fluoropyridin-2-yl)vinyl]-2-isopropylbenzene-1,3-diol] | 88.32 | 87.83 | 88.31 | 84.37 | 27 |  |  |  | 
CC(C)c1c(O)cc(/C=C/c2ccccc2F)c(F)c1O [Compound 6, (E)-4-Fluoro-5-(2-fluorostyryl)-2-isopropylbenzene-1,3-diol] | 98.31 | 98.37 | 98.27 | 98.68 | 10 |  |  |  | 
CC(C)c1c(O)cc(/C=C/c2ccccc2)c(F)c1O [Compound 3, (E)-4-Fluoro-2-isopropyl-5-styrylbenzene-1,3-diol] |  |  |  |  | 57 | 97.25 | 97.33 | 96.06 | 97.71
CC(C)c1c(O)cc(/C=C/c2ccc(F)cn2)c(F)c1O [Compound 9, (E)-4-Fluoro-5-[2-(5-fluoropyridin-2-yl)vinyl]-2-isopropylbenzene-1,3-diol] | 99.46 | 98.65 | 97.46 | 92.06 | 20 |  |  |  | 
Cc1c(/C=C/c2ccccc2)cc(O)c(C(C)C)c1O [Compound 2, (E)-2-Isopropyl-4-methyl-5-styrylbenzene-1,3-diol] |  |  |  |  | 177 |  |  |  | 
CC(C)c1c(O)cc(/C=C/c2ncccc2F)c(F)c1O [Compound 7, (E)-4-Fluoro-5-[2-(3-fluoropyridin-2-yl)vinyl]-2-isopropylbenzene-1,3-diol] | 98.70 | 95.84 | 91.56 | 89.57 | 30 |  |  |  | 
CC(C)c1c(O)cc(/C=C/c2ncccc2Cl)c(F)c1O [Compound 8, (E)-5-[2-(3-Chloropyridin-2-yl)vinyl]-4-fluoro-2-isopropylbenzene-1,3-diol] |  |  |  |  | 13 |  |  |  | 
CC(C)c1c(O)cc(/C=C/c2ccccc2)cc1O [Benvitimod, reference compound] |  |  |  |  |  | 99.87 | 85.14 | 74.20 | 69.53

Source: patent US20260091027A1, “STILBENE DERIVATIVES AS WELL AS PREPARATION METHOD THEREFOR AND USE THEREOF” (THEDERMA SHANGHAI CO., LTD., priority 2022, published 2026)
